This note sets out measurements from US20080003438A1, “Heterocyclic siloxanes for use in biocidal coatings and materials” (Auburn University, priority 2002, published 2008).

The subject of one assay is S. aureus (ATCC 6538). As to the kind of experiment: Challenge of treated cotton swatches, modified AATCC Method 100. The format is cell-based. The settings on record: coated chlorinated cotton swatches, contact time interval 10-30 minutes, pH 7 phosphate buffer. The procedure:
(§1) Treated cotton swatches were challenged with S. aureus (ATCC 6538) and Escherichia coli (ATCC 2666) at a concentration of between 10^8 and 10^9 CFU/mL in pH 7 phosphate buffer solution using a modified version of AATCC Method 100. The swatches were quenched with 0.02 N sodium thiosulfate solution at contact times of 10, 30, 60, and 120 min. Serial dilutions of the solutions contacting the swatches were plated on nutrient agar, incubated for 48 hours at 37° C., and plate counts were made to determine the presence of viable bacteria. […] The control sample (cotton soaked in 10% bleach, rinsed, and dried) gave only a 0.4 log reduction at 30 minutes. […] The control sample (cotton soaked in 10% bleach, rinsed, and dried) gave a 0 log reduction at 120 minutes.

The subject of assay [1] is Escherichia coli (ATCC 2666). The description is as above. The format is cell-based. The note with it: contact time interval 60-120 minutes. Here is the method: as §1
In another assay the test system is MS2 phage. As to the kind of experiment: Antiviral activity of chlorinated coated surfaces, modified AATCC Method 100-1998. The format is cell-based, MS2 virus. The procedure:
Soft and hard surfaces were treated by exposure to a solution of 3-triethoxysilylpropyl-5,5-dimethylhydantoin, as prepared in Example 1, and then halogenated with hypochlorite bleach, prior to being exposed to a challenge inoculum of a virus (MS2 phage). […] Soft surfaces used in these experiments were swatches of woven cotton textiles, and slabs cut from a standard kitchen sponge. Hard surfaces used were porcelain and marble tiles.
For the preparation of antimicrobial textiles, fabric and sponge samples were immersed in 5% solution of 3-triethoxysilylpropyl-5,5-dimethylhydantoin and dried in a convection oven at 90° C. for two hours. Chlorination of the coated cellulose materials was accomplished by placing them in the wash chamber of a standard, household washing machine, and processing them through a normal, cold water small load cycle, with one rinse. The washing solution contained 100 mL of CLOROX ULTRA (sodium hypochlorite) per load. […] Chlorine contents were calculated and expressed as ppm Cl^+. […]
Hard surface samples were exposed to the 3-triethoxysilylpropyl-5,5-dimethylhydantoin by using a sponge soaked in the 5% solution, before transfer to a drying oven at 90° C. for two hours. […] Chlorine bound to hard surfaces was determined by iodometric/thiosulfate titration, and chlorine contents were expressed as μg Cl^+ per square cm. […]

The test system of assay [2] is spores of Aspergillus niger (ATCC # 1004). As to the kind of experiment: Antifungal activity of chlorinated coated surfaces. The format is cell-based. The procedure:
Soft and hard surfaces were treated by exposure to a solution of 3-triethoxysilylpropyl-5,5-dimethylhydantoin, prepared as described in Example 1. The soft surfaces used for detection of antifungal properties were woven textiles composed of fibers of polypropylene, cotton (cellulose), polyester, rayon, and slabs from a cellulose kitchen sponge. Hard surfaces prepared were polyvinylchloride (PVC) sheets, and porcelain and marble tiles. Challenge inocula of prepared surfaces consisted of aliquots of stock suspensions of spores of Aspergillus niger (ATCC # 1004), a black mold, harvested from cultured lawns on Potato Dextrose Agar (PDA) plates. Methods for preparation of the halogen charged surfaces and protocols for challenge were as described in Example 11. In this case recovery of Aspergillus was accomplished by the plate dilution method on PDA, and the results were expressed as log 10 reductions compared to the controls. Contact times varied from 24-72 hours, considerably longer than was allowed for other organisms because of the well established durability of black mold spores under a wide range of physical and chemical conditions.

As to `CCO[Si](CCCN1C(=O)NC(C)(C)C1=O)(OCC)OCC` [3-triethoxysilylpropyl-5,5-dimethylhydantoin], the “log reduction of S. aureus” value in the assay on S. aureus (ATCC 6538) was greater than 5.7 logs. In assay [1], the “log reduction of E. coli” value is on record as greater than 5.9 logs. The “Log 10 reduction of MS2 titer” value in the assay on MS2 phage (cellulose substrates (textile and sponge), 24 hours of contact) was “approximately 4 logs”; in the assay on MS2 phage (hard surfaces, contact times of as little as 6 hours), “approximately 2 logs”. In addition, the “log 10 reduction in mold concentration” value is given as 8 logs in assay [2] (cotton, contact 24 hours); 4 log in assay [2] (marble, 72 hours after spore inoculation); 5 log in assay [2] (porcelain, 72 hours after spore inoculation); 4 log in assay [2] (sponge slabs, contact 24 hours); 5 logs in assay [2] (synthetic fibers (polypropylene, polyester), 72 hours of contact); 4 log in assay [2] (vinyl, 72 hours after spore inoculation).
